Results taken from patent publication US12582607B2, “Implantable medical devices for extended release of therapeutic agents” (Nano Precision Medical, Inc., priority 2014, dated 2026).

Experiments:
[1] = Forced degradation study of exenatide with and without PLGA in titanium reservoirs with nanotube membrane; purity of released exenatide by HPLC; format: physicochemical; conditions: 37 C, devices in PBS pH 7.4 with full access to air; for Exenatide purity over time (% purity), 7 days: day 7; for Exenatide purity over time (% purity), 14 days: day 14; for Exenatide purity over time (% purity), 28 days: day 28; for Exenatide purity over time (% purity), 35 days: day 35; for Exenatide purity over time (% purity), 42 days: day 42; for Exenatide purity over time (% purity), 56 days: day 56
Procedure: To avoid confounding factors, no other stabilizers were used in the study.
The devices were incubated in phosphate buffered saline (pH 7.4) under full access to air (oxygen).

[2] = In vitro release of stabilizers from implantable devices and disassembly of the devices (Contemplated Examples); format: physicochemical; conditions: for pH maintained inside device: disassembly of devices at 2 months, 26 mM bis-tris buffer, 154 mM NaCl; for pH maintained inside device / duration for which stabilizer level (pH or concentration) is maintained in device: 37° C.; for release rate profile of stabilizer out of device through nanoporous membrane: in vitro testing, reverse phase HPLC; for duration for which stabilizer level (pH or concentration) is maintained in device: in vitro
Text: In the examples below the devices that are used include titanium capsules of approximately 25 mm length and 2.25 mm diameter. A titanium substrate with a titanium oxide nanoporous membrane is welded to one end of the device. […] A silicone septum is located at the other end of the device. Extended-release configurations of stabilizers, prepared as described further below, are incorporated into the reservoirs before final attachment of the membrane and septum on the device. A formulation solvent is filled into the device as per methods in PCT/US2021/019559. Briefly, the formulation solvent is loaded into a filler apparatus with a hollow needle to pierce the septum. A vacuum is applied to the membrane of the device to reduce the pressure inside the reservoir, and the formulation is injected through the septum into the reservoir through the needle. The durability of the presence of stabilizers inside devices of the disclosure may be tested by measuring release of the stabilizers from the devices in vitro. In vitro testing is performed by submerging the devices in 3 ml of a 26 mM bis-tris buffer, 154 mM NaCl on a shaker plate at 37° C. and measuring the amounts of stabilizer released at regular intervals by reverse phase HPLC.

[3] = cited from earlier work

Compound: Exenatide only (Irradiated): E-beam irradiated (25k Gray) exenatide solution 200 mg/ml, no PLGA
- Exenatide purity over time (% purity), 7 days [1]: 96 % purity
- Exenatide purity over time (% purity), 14 days [1]: 91 % purity
- Exenatide purity over time (% purity), 28 days [1]: 82 % purity
- Exenatide purity over time (% purity), 35 days [1]: 75 % purity
- Exenatide purity over time (% purity), 42 days [1]: 66 % purity
- Exenatide purity over time (% purity), 56 days [1]: 51 % purity

Compound: O=C(O)c1ccccc1 [benzoic acid]
- pH maintained inside device [2]: below 6
- release rate profile of stabilizer out of device through nanoporous membrane [2]: declining with approximately the square root of time
- duration for which stabilizer level (pH or concentration) is maintained in device [2]: at least 2 months

Compound: Oc1ccc(O)cc1 [hydroquinone, Hydroquinone]
- stabilizer concentration maintained in device ([2]; disassembly of devices at 4 months): at least 0.05%
- release rate profile of stabilizer out of device through nanoporous membrane [2]: approximately constant rate
- duration for which stabilizer level (pH or concentration) is maintained in device [2]: at least 4 months

Compound: [H]/N=C(\N/C(=N/[H])NCCCCCCNC(=N)NC(=N)Nc1ccc(Cl)cc1)Nc1ccc(Cl)cc1 [chlorhexidine, Chlorhexidine]
- pH maintained inside device [2]: above 8
- release rate profile of stabilizer out of device through nanoporous membrane [2]: declining with approximately the square root of time
- duration for which stabilizer level (pH or concentration) is maintained in device [2]: at least 2 months

Compound: Cc1cc(C(C)(C)C)c(O)c(C(C)(C)C)c1 [butylated hydroxytoluene]
- reported solubility in water [3]: about 1 ppm

Compound: Exenatide only: 20% (w/v) exenatide solution in Water For Injection with 0.04% NaN3, no PLGA, non-irradiated
- Exenatide purity over time (% purity), 7 days [1]: 99 % purity
- Exenatide purity over time (% purity), 14 days [1]: 89 % purity
- Exenatide purity over time (% purity), 28 days [1]: 87 % purity
- Exenatide purity over time (% purity), 35 days [1]: 82 % purity
- Exenatide purity over time (% purity), 42 days [1]: 72 % purity
- Exenatide purity over time (% purity), 56 days [1]: 62 % purity

Compound: CCCOC(=O)c1cc(O)c(O)c(O)c1 [propyl gallate]
- stabilizer concentration maintained in device ([2]; disassembly of devices at 3 months): at least 0.05%
- release rate profile of stabilizer out of device through nanoporous membrane [2]: declining with approximately the square root of time
- duration for which stabilizer level (pH or concentration) is maintained in device [2]: at least 3 months
